{
  "source": "patent US20170119896A1",
  "about": "“TERMINALLY MODIFIED POLYMERS AND CONJUGATES THEREOF” (Mersana Therapeutics, Inc., priority 2012, published 2017)",
  "target": "T1, glucagon-like peptide-1 receptor (GLP1R CHO-K1 Gs overexpressing cells) (Homo sapiens, UniProt P43220)",
  "T1 construct": "host or cells: CHO-K1",
  "T1 sequence (P43220 24-463)": "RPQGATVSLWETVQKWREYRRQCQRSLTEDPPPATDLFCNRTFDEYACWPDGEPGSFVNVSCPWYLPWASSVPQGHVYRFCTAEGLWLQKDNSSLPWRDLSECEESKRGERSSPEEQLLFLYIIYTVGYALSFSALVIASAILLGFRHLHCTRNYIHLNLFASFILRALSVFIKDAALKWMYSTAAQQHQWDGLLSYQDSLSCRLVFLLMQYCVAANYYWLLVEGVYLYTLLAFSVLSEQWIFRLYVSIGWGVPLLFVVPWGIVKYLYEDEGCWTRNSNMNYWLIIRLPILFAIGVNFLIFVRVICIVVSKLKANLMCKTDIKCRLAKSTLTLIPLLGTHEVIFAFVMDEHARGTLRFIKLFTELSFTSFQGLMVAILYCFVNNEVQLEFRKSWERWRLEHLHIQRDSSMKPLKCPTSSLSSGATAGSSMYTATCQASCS",
  "assay": "DiscoveRx cAMP Hunter express GPCR Assay (cellular cAMP formation)",
  "type": "cell-based",
  "details": "30 min at 37° C., cAMP chemiluminescent signal, four-parameter curve fitting",
  "procedure": "The activity of terminally modified PHF exendin conjugates were measured using DiscoveRx cAMP Hunter express GPCR Assay which determines the cellular formation of a second messenger such as cAMP. […] It binds to glucagon-like peptide-1 receptor 1-G-protein coupled receptor (GPCR). Following stimulation of this receptor, intracellular signaling pathways are activated that lead to the production of intracellular second messengers, such as cAMP. Free cAMP molecules from cell lysates compete for antibody binding with a labeled enzyme donor (ED)-cAMP conjugate, which contains a small peptide fragment of β-galactosidase. In the absence of free cAMP, the ED-cAMP conjugates are captured by the cAMP-specific antibody and are unavailable for complementation with the enzyme acceptor (EA), resulting in a low signal. In the presence of free cAMP, antibody sites are occupied, allowing the ED-cAMP conjugate to complement with EA, forming an active β-galactosidase enzyme; substrate hydrolysis by this enzyme produces a chemiluminescent signal. The signal generated is in direct proportion to the amount of free cAMP […]. […] Luminescent signal was measured using a SpectraMax M5 plate reader (Molecular Devices). […] EC50 values were determined from four-parameter curve fitting.",
  "data": [
    {"substance": "50 kDa PHF-6-maleimido hexanamide-Exendin-4-Cys (i.e., (Exendin-4-Cys)-(N-(2-maleimido)propanamido)propyl)-ethylamino-50 kDa PHF) [Example 15]", "values": [
      {"measurement": "EC50", "result": 1.87, "unit": "nM"}
    ]}
  ]
}
